Laboratory results published in patent US10472341B2, “Bicyclic tetrahydrothiazepine derivatives useful for the treatment of neoplastic and/or infectious diseases” (APEIRON BIOLOGICS AG, priority 2015, dated 2019).
Like-named read-outs stand apart in the source and are kept apart here.

Tests used:
Type in all cases: cell-based
CD8 T cells = assay: CD69 expression on aCD3/aCD28 stimulated isolated human CD8 T cells (flow cytometry); details: T-cell, 24 h after TCR stimulation, read-out: Activity Class CD69 (CD8)
Description: (§1) Isolated T cells were plated in Xvivo medium at 1.5*10 ^5 cells per in 96 well culture plates and TCR-stimulated with anti-CD3/28 mAbs in the presence of compound as indicated. Cytokine production was determined at 24 h or 48 h following TCR stimulation in cell culture supernatants using commercially available ELISA kits (BD and eBioscience) as recommended by the manufacturer. T cell proliferation and CD25 expression (CD25-PC5 reagent purchased from Beckman Coulter) was determined by flow cytometry (Beckman-Coulter FC500) and analysed with Kaluza Software. For measurement of CD69 expression, isolated CD4 and CD8 T cells were plated in Xvivo medium at […] per in 96 well culture plates and TCR-stimulated with anti-CD3/28 mAbs in the presence of compound. CD69 expression was determined at 24 h following TCR stimulation by flow cytometry (CD4eF450, CD8APCeF780 and CD69-PC7 reagent purchased from eBioscience) and analysed with Kaluza Software.
(§2) For measurement of CD69 expression, isolated CD4 and CD8 T cells were plated in Xvivo medium at 80000 cells per in 96 well culture plates and TCR-stimulated with anti-CD3/28 mAbs in the presence of compound. CD69 expression was determined at 24 h following TCR stimulation by flow cytometry (CD4eF450, CD8APCeF780 and CD69-PC7 reagent purchased from eBioscience) and analysed with Kaluza Software.

CD4 T cells = assay: CD69 expression on aCD3/aCD28 stimulated isolated human CD4 T cells (flow cytometry); details: 24 h after TCR stimulation, read-out: Activity Class CD69 (CD4)
Description: as §1, §2

[1] = system: aCD3/aCD28-stimulated human CD4+-T-cells; assay: IL-2 production and activation markers in aCD3/aCD28 stimulated isolated human CD4+-T-cells; details: IL-2 production at 3 μM compound
Method in brief: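 CD4+ T cells isolated from buffy-coat PBMCs by microbeads were plated in Xvivo medium (1.5*10^5 cells/well) and stimulated with anti-CD3/28 mAbs plus compound. IL-2 measured by ELISA in supernatants at 24 h or 48 h; CD25 and proliferation by flow cytometry, CD69 at 24 h. Activity classes based on IL-2 at 3 μM compound.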

[2] = system: aCD3/aCD28-stimulated human PBMCs; assay: Cytokine production in aCD3/aCD28 stimulated human PBMCs; details: PBMC, 18 h
Method in brief: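 Ficoll-isolated human PBMCs at 1e6 cells/mL in X-Vivo15, stimulated with soluble anti-CD3/CD28 (OKT3 and 28.2, 1 μg/mL each) plus compound for 18 h at 37° C. Supernatant cytokines quantified by MSD or HTRF.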

[3] = enhancement of IFN-γ production, read-out: Activity Class IFN-γ
[4] = enhancement of IL-2 production, read-out: Activity Class IL-2

| SMILES | EC50 (CD8 T cells) | EC50 (CD4 T cells) | Activity Class CD4+ [1] | EC50 [2, 3] | EC50 [2, 4] |
| --- | --- | --- | --- | --- | --- |
| Cl.N[C@H]1CS(=O)(=O)c2cc(F)c(C(=O)NCc3ccc(F)cc3)cc2N(Cc2ccc(Cl)cc2)C1=O [Example 68, (3R)-3-amino-5-[(4-chlorophenyl)methyl]-8-fluoro-N-[(4-fluorophenyl)methyl]-1,1,4-trioxo-2,3,4,5-tetrahydro-1λ^6,5-benzothiazepine-7-carboxamide hydrochloride] | < 1580 nM | < 1580 nM | A (IL-2 production at 3 μM compound concentration >10 ng/mL) | < 1580 nM | < 1580 nM |
| Cl.N[C@H]1CS(=O)(=O)c2cc(F)c(C(=O)NCC3CCOCC3)cc2N(Cc2ccc(OC(F)(F)F)cc2)C1=O [Example 72, (3R)-3-amino-8-fluoro-N-(oxan-4-ylmethyl)-1,1,4-trioxo-5-{[4-(trifluoromethoxy)-phenyl]methyl}-2,3,4,5-tetrahydro-1λ^6,5-benzothiazepine-7-carboxamide hydrochloride] | 1580 to 5010 nM | < 1580 nM | A (IL-2 production at 3 μM compound concentration >10 ng/mL) | < 1580 nM | < 1580 nM |
| N[C@H]1CS(=O)(=O)c2ccc(C(=O)NCCC(F)(F)F)cc2N(Cc2ccc(Cl)cc2)C1=O [Example 155, (3R)-3-amino-5-[(4-chlorophenyl)methyl]-1,1,4-trioxo-N-(3,3,3-trifluoropropyl)-2,3,4,5-tetrahydro-1λ^6,5-benzothiazepine-7-carboxamide] | < 1580 nM | < 1580 nM | – | 1580 to 5010 nM | 1580 to 5010 nM |
| N[C@H]1CS(=O)(=O)c2ccc(C(=O)N[C@@H]3CC3(F)F)cc2N(Cc2ccc(Cl)cc2)C1=O [Example 158, (3R)-3-amino-5-[(4-chlorophenyl)methyl]-N-[(1R)-2,2-difluorocyclopropyl]-1,1,4-trioxo-2,3,4,5-tetrahydro-1λ^6,5-benzothiazepine-7-carboxamide] | 1580 to 5010 nM | 1580 to 5010 nM | – | < 1580 nM | 1580 to 5010 nM |
| N[C@H]1CS(=O)(=O)c2ccc(C(=O)N[C@@H]3CC3(F)F)cc2N(Cc2ccc(C3CC3)cc2)C1=O [Example 159, (3R)-3-amino-5-[(4-cyclopropylphenyl)methyl]-N-[(1R)-2,2-difluorocyclopropyl]-1,1,4-trioxo-2,3,4,5-tetrahydro-1λ^6,5-benzothiazepine-7-carboxamide] | < 1580 nM | < 1580 nM | – | 1580 to 5010 nM | 1580 to 5010 nM |
| N[C@H]1CS(=O)(=O)c2ccc(C(=O)N[C@@H]3CC3(F)F)cc2N(Cc2ccc(OC(F)F)cc2)C1=O [Example 160, (3R)-3-amino-N-[(1R)-2,2-difluorocyclopropyl]-5-{[4-(difluoromethoxy)phenyl]methyl}-1,1,4-trioxo-2,3,4,5-tetrahydro-1λ^6,5-benzothiazepine-7-carboxamide] | 1580 to 5010 nM | < 1580 nM | – | > 5010 nM | > 5010 nM |
| N[C@H]1CS(=O)(=O)c2cc(Cl)c(C(=O)NCCCC(F)(F)F)cc2N(Cc2ccc(Cl)cc2)C1=O [Example 163, (3R)-3-amino-8-chloro-5-[(4-chlorophenyl)methyl]-1,1,4-trioxo-N-(4,4,4-trifluorobutyl)-2,3,4,5-tetrahydro-1λ^6,5-benzothiazepine-7-carboxamide] | < 1580 nM | < 1580 nM | – | < 1580 nM | 1580 to 5010 nM |
| N[C@H]1CS(=O)(=O)c2ccc(C(=O)NCC3(F)CCOCC3)cc2N(Cc2ccc(Cl)cc2)C1=O [Example 165, (3R)-3-amino-5-[(4-chlorophenyl)methyl]-N-[(4-fluorooxan-4-yl)methyl]-1,1,4-trioxo-2,3,4,5-tetrahydro-1λ^6,5-benzothiazepine-7-carboxamide] | < 1580 nM | < 1580 nM | – | < 1580 nM | 1580 to 5010 nM |
| N[C@H]1CS(=O)(=O)c2ccc(C(=O)NCC3CC(F)(F)C3)cc2N(Cc2ccc(Cl)cc2)C1=O [Example 171, (3R)-3-amino-5-[(4-chlorophenyl)methyl]-N-[(3,3-difluorocyclobutyl)methyl]-1,1,4-trioxo-2,3,4,5-tetrahydro-1λ^6,5-benzothiazepine-7-carboxamide] | < 1580 nM | < 1580 nM | – | 1580 to 5010 nM | < 1580 nM |

The next lines start with results.

| EC50 (CD8 T cells) | EC50 (CD4 T cells) | SMILES | Activity Class CD4+ [1] | EC50 [2, 3] | EC50 [2, 4] |
| --- | --- | --- | --- | --- | --- |
| < 1580 nM | < 1580 nM | CCCCNC(=O)c1cc2c(cc1F)S(=O)(=O)C[C@H](N)C(=O)N2Cc1ccc(Cl)cc1.Cl [Example 69, (3R)-3-amino-N-butyl-5-[(4-chlorophenyl)methyl]-8-fluoro-1,1,4-trioxo-2,3,4,5-tetrahydro-1λ^6,5-benzothiazepine-7-carboxamide hydrochloride] | A (IL-2 production at 3 μM compound concentration >10 ng/mL) | < 1580 nM | < 1580 nM |
| < 1580 nM | < 1580 nM | Cl.N[C@H]1CS(=O)(=O)c2cc(F)c(C(=O)NCC3CCOCC3)cc2N(Cc2ccc(Cl)cc2)C1=O [Example 71, (3R)-3-amino-5-[(4-chlorophenyl)methyl]-8-fluoro-N-(oxan-4-ylmethyl)-1,1,4-trioxo-2,3,4,5-tetrahydro-1λ^6,5-benzothiazepine-7-carboxamide hydrochloride] | B (IL-2 production at 3 μM compound concentration between 2-10 ng/mL) | < 1580 nM | < 1580 nM |
| < 1580 nM | 1580 to 5010 nM | COc1ccc(CN2C(=O)[C@@H](N)CS(=O)(=O)c3ccc(C(=O)NC4CCC(F)(F)CC4)cc32)cc1 [Example 154, (3R)-3-amino-N-(4,4-difluorocyclohexyl)-5-[(4-methoxyphenyl)methyl]-1,1,4-trioxo-2,3,4,5-tetrahydro-1λ^6,5-benzothiazepine-7-carboxamide] | – | 1580 to 5010 nM | > 5010 nM |
| < 1580 nM | < 1580 nM | N[C@H]1CS(=O)(=O)c2ccc(C(=O)N[C@@H]3CCC(F)(F)C3)cc2N(Cc2ccc(Cl)cc2)C1=O [Example 169, (3R)-3-amino-5-[(4-chlorophenyl)methyl]-N-[(1R)-3,3-difluorocyclopentyl]-1,1,4-trioxo-2,3,4,5-tetrahydro-1λ^6,5-benzothiazepine-7-carboxamide] | – | < 1580 nM | < 1580 nM |
| 1580 to 5010 nM | < 1580 nM | N[C@H]1CS(=O)(=O)c2cc(Cl)c(C(=O)N[C@@H]3CC3(F)F)cc2N(Cc2ccc(Cl)cc2)C1=O [Example 175, (3R)-3-amino-8-chloro-5-[(4-chlorophenyl)methyl]-N-[(1R)-2,2-difluorocyclopropyl]-1,1,4-trioxo-2,3,4,5-tetrahydro-1λ^6,5-benzothiazepine-7-carboxamide] | – | 1580 to 5010 nM | > 5010 nM |
| > 5010 nM | > 5010 nM | N[C@H]1CS(=O)(=O)c2ccc(C(=O)NCCN3CCOCC3)cc2N(Cc2ccc(Cl)cc2)C1=O [Example 176, (3R)-3-amino-5-[(4-chlorophenyl)methyl]-N-[2-(morpholin-4-yl)ethyl]-1,1,4-trioxo-2,3,4,5-tetrahydro-1λ^6,5-benzothiazepine-7-carboxamide] | – | > 5010 nM | > 5010 nM |
| < 1580 nM | < 1580 nM | C#CCOc1ccc(CNC(=O)c2cc3c(cc2F)S(=O)(=O)C[C@H](N)C(=O)N3Cc2ccc(Cl)cc2)cc1 [Example 178, (3R)-3-amino-5-[(4-chlorophenyl)methyl]-8-fluoro-1,1,4-trioxo-N-{[4-(prop-2-yn-1-yloxy)phenyl]methyl}-2,3,4,5-tetrahydro-1λ^6,5-benzothiazepine-7-carboxamide] | – | < 1580 nM | < 1580 nM |
| < 1580 nM | < 1580 nM | N[C@H]1CS(=O)(=O)c2ccc(C(=O)N[C@@H]3CC3(F)F)cc2N(Cc2ccc(C(F)(F)F)cc2)C1=O [Example 179, (3R)-3-amino-N-[(1R)-2,2-difluorocyclopropyl]-1,1,4-trioxo-5-{[4-(trifluoromethyl)phenyl]methyl}-2,3,4,5-tetrahydro-1λ^6,5-benzothiazepine-7-carboxamide] | – | 1580 to 5010 nM | < 1580 nM |
| < 1580 nM | < 1580 nM | N[C@H]1CS(=O)(=O)c2ccc(C(=O)NC3CC3(F)F)cc2N(Cc2ccc(Br)cc2)C1=O (stereo partly drawn) [Example 180, (3R)-3-amino-5-[(4-bromophenyl)methyl]-N-(2,2-difluorocyclopropyl)-1,1,4-trioxo-2,3,4,5-tetrahydro-1λ^6,5-benzothiazepine-7-carboxamide] | – | < 1580 nM | < 1580 nM |
